# From patent publication US20230126447A1, “OCULAR DRUG DEPOT FOR COMPLEMENT-MEDIATED DISORDERS” (priority 2020, published 2023)
# Where “and” joins values, the source holds several entries; their conditions need not be identical. Identical values can stand only once. Like-named read-outs stand apart in the source and are kept apart here.
# Tests used:
# AP activity [1] = experiment: cells; settings: Erythrocyte, read-out: IC50 for PNH erythrocyte hemolysis
# [2] = Multiple ascending dose (MAD) pharmacokinetics in humans; format: in vivo
# [3] = Phase 1 single ascending dose plasma pharmacokinetics in healthy volunteers; format: in vivo, human
# Method: This study was conducted in healthy human volunteers in a randomized, double-blind design. Compound 1 or placebo was administered as a single oral dose to twenty-eight healthy volunteers in three separate dose groups. […] Pharmacokinetic data from each volunteer is summarized in Table 29, and plasma concentration data is shown graphically in FIG. 19.
# AP activity [4] = experiment: cells; settings: Oryctolagus cuniculus, Erythrocyte, read-out: IC50 for rabbit erythrocyte hemolysis
# [5] = Ocular tissue and plasma pharmacokinetics, 50 mg/kg BID oral, New Zealand White rabbits (Example 4); format: in vivo; settings: one-hour post-dose on Day 15
# Method: Study design, including group designation and dose levels, are outlined in Table 15. […] Two Dutch Belted rabbits received vehicle only oral gavage doses for tolerability assessment. […] The dose volume was 5 mL/kg/dose for all groups. Safety was assessed with toxicological and ophthalmic examinations, including slit lamp biomicroscopy, indirect ophthalmoscopy, rebound tonometry, and ultrasonic corneal pachymetry. […] Plasma, vitreous humor (VH), retina, choroid-retina pigmented epithelium (Choroid-RPE), optic nerve (ON), and iris-ciliary body (I-CB) were analyzed by LC-MS/MS to quantify test article concentrations. The lower limit of quantitation (LLOQ) in plasma and vitreous humor was 1.0 ng/mL.
# [6] = Ocular tissue and plasma pharmacokinetics, 15 mg/kg oral, New Zealand White rabbits (Example 3/5); format: in vivo
# Method: Study design including group designation and dose levels are outlined in Table 4. […] Fifteen Dutch Belted and 5 New Zealand White rabbits were used as un-dosed controls. […] The dose volume was 5 mL/kg/dose for all groups. Safety was assessed with toxicological and ophthalmic examinations including slit lamp biomicroscopy, indirect ophthalmoscopy, rebound tonometry, and ultrasonic corneal pachymetry.
# Analyst® software (Version 1.6.2) was used to capture the LC-MS/MS data and integrate the peak areas. Calibration standards and QCs were prepared in a blank solution of 75%:25% acetonitrile:water (v:v), ranging from 10 ng/mL to 10,000 ng/mL. Matrix matched standard and QC samples were prepared by mixing 2 μL of standard or QC sample above with 18 μL of appropriate ocular tissue or plasma. The final calibration standards ranged from 1 ng/mL to 1000 ng/mL. All plasma, retina, choroid-RPE, optic nerve, and vitreous humor samples were analyzed in a single run. Iris-ciliary body samples were analyzed in two runs due to a need for sample dilution. […] Dilution QCs were prepared at 5000 ng/mL where appropriate. Two sets of standards were used to bracket the analytical run at the beginning and end of the run. Three sets of QCs were included the analytical runs. All concentrations in ocular matrices are reported as ng/g based on the assumed density of 1 g/mL.
# 1, 6, 24, 96, 168, and 240 hours post-dose on Day 15, with the eyes collected at the same time as blood sampling. A single blood sample was taken from Groups 4 and 5 at sacrifice. Plasma, vitreous humor (VH), retina, choroid-retina pigmented epithelium (Choroid-RPE), optic nerve (ON), and iris-ciliary body (I-CB) were analyzed by LC-MS/MS to quantify test article concentrations. The lower limit of quantitation (LLOQ) in plasma and vitreous humor was 1.0 ng/mL. The LLOQ was 6.0 ng/g in retina, Choroid-RPE, and I-CB and the optic nerve LLOQ was 15 ng/g, assuming tissue density of 1 g/mL where relevant.
# Study design including group designation and dose levels are outlined in Table 18.
# [7] = In vitro binding to melanin from Sepia officinalis; settings: S. officinalis melanin 50 μg/mL, PBS, 37° C., 1 hour
# Method: […] The melanin solution was stored in the dark at 37° C. until use.
# Immediately after the assay, samples were added to an equal volume of warm PBS, aliquots (3 μL each) were removed, added to 100 μL of acetonitrile containing carbutamide as internal standard, and then diluted with water (197 μL). These time-zero samples, prepared in PBS only, were also used as calibration standards.
# The assay plates containing samples with and without melanin were incubated in the dark with shaking at 37° C. for 1 hour. Following incubation, the samples were centrifuged for 15 minutes at approximately 4000 rpm at 37° C. to sediment the melanin. Sample supernatant (3 μL) was added to 100 μL of acetonitrile containing the internal standard and then diluted with water (197 μL).
# The column was set to a temperature of 55° C. […]
# Analytes and internal standards were detected using an Applied Biosystems Sciex API-5500 triple quadrupole mass spectrometer with Agilent 1260 Infinity Binary Pump and Apricot Designs ADDA High-Speed Dual Arm Autosampling System. The instrument was equipped with an electrospray ionization source (600° C.) operated in the positive ion mode. Analytes and internal standards for all samples were monitored in the multiple-reaction-monitoring scan mode.
# [8] = Group 1, 200 mg single oral dose, individual subjects
# [9] = Group 2, 600 mg single oral dose, individual subjects
# [10] = Group 3, 1200 mg single oral dose, individual subjects
smiles,measurement,setting,value
"CC(=O)c1nn(CC(=O)N2C[C@H](F)C[C@H]2C(=O)Nc2cccc(Br)n2)c2ccc(-c3cnc(C)nc3)cc12 [Compound 1, (2S,4R)-1-(2-(3-Acetyl-5-(2-methylpyrimidin-5-yl)-1H-indazol-1-yl)acetyl)-N-(6-bromopyridin-2-yl)-4-fluoropyrrolidine-2-carboxamide]",IC50,AP activity [1],14 nM
same,Steady state conditions reached,[2]; MAD study,Day 2
same,Tmax,"[2]; human, in vivo, 200 to 800 mg BID and 75 mg TID, read-out: Median time to maximum concentration (Tmax)",1 to 2.3 h
same,AUC(0-24),[3]; [8],3387.20 ng·h/mL and 4128.01 ng·h/mL and 2339.30 ng·h/mL and 3615.79 ng·h/mL and 1888.95 ng·h/mL and 2229.07 ng·h/mL
same,AUC(0-∞),[3]; [8],3616.53 ng·h/mL and 4241.37 ng·h/mL and 2569.69 ng·h/mL and 3822.48 ng·h/mL and 1993.07 ng·h/mL and 2385.64 ng·h/mL
same,Cmax,[3]; [8],950 ng/mL and 2060 ng/mL and 764 ng/mL and 1380 ng/mL and 635 ng/mL and 562 ng/mL
same,Tmax,[3]; [8],1.25 h
same,AUC(0-24),[3]; [9],6591.55 ng·h/mL and 6135.83 ng·h/mL and 6020.33 ng·h/mL and 4079.30 ng·h/mL and 7288.50 ng·h/mL
same,AUC(0-∞),[3]; [9],6805.91 ng·h/mL and 7335.98 ng·h/mL and 6903.06 ng·h/mL and 4687.40 ng·h/mL and 8671.53 ng·h/mL
same,Cmax,[3]; [9],2480 ng/mL and 2100 ng/mL and 1380 ng/mL and 1810 ng/mL
same,Tmax,[3]; [9],2.00 h and 1.25 h
same,AUC(0-24),[3]; [10],11822.00 ng·h/mL and 10219.40 ng·h/mL and 8431.90 ng·h/mL and 11357.50 ng·h/mL and 14054.00 ng·h/mL
same,AUC(0-∞),[3]; [10],13297.29 ng·h/mL and 10982.71 ng·h/mL and 10243.93 ng·h/mL and 13190.18 ng·h/mL and 15424.93 ng·h/mL
same,Cmax,[3]; [10],3080 ng/mL and 3230 ng/mL and 3530 ng/mL and 1940 ng/mL and 2530 ng/mL and 4100 ng/mL
same,AUC(0-t),"[3]; human, po, 200 mg, Group 1, 200 mg single oral dose, Mean (N 6), read-out: AUC(0-24)",2930 ng·h/mL
same,AUC(0-inf),"[3]; human, po, 200 mg, Group 1, 200 mg single oral dose, Mean (N 6), read-out: AUC(0-∞)",3100 ng·h/mL
same,Cmax,"[3]; human, po, 200 mg, Group 1, 200 mg single oral dose, Mean (N 6), read-out: Cmax",1060 ng/mL
same,Tmax,"[3]; human, po, 200 mg, Group 1, 200 mg single oral dose, Mean (N 6), read-out: Tmax",1.79 h
same,Tmax,"[3]; human, po, 200 mg, Group 1, 200 mg single oral dose, individual subjects, read-out: Tmax",1.5 h
same,AUC(0-t),"[3]; human, po, 200 mg, Group 1, 200 mg single oral dose, read-out: Mean AUC(0-24)",2390 ng·h/mL
same,AUC(0-inf),"[3]; human, po, 200 mg, Group 1, 200 mg single oral dose, read-out: Mean AUC(0-∞)",3020 ng·h/mL
same,Cmax,"[3]; human, po, 200 mg, Group 1, 200 mg single oral dose, read-out: Mean Cmax",1060 ng/mL
same,AUC(0-t),"[3]; human, po, 600 mg, Group 2, 600 mg single oral dose, Mean (N 6), read-out: AUC(0-24)",6190 ng·h/mL
same,AUC(0-inf),"[3]; human, po, 600 mg, Group 2, 600 mg single oral dose, Mean (N 6), read-out: AUC(0-∞)",7090 ng·h/mL
same,Cmax,"[3]; human, po, 600 mg, Group 2, 600 mg single oral dose, Mean (N 6), read-out: Cmax",2020 ng/mL
same,Tmax,"[3]; human, po, 600 mg, Group 2, 600 mg single oral dose, Mean (N 6), read-out: Tmax",1.63 h
same,AUC(0-t),"[3]; human, po, 600 mg, Group 2, 600 mg single oral dose, individual subjects, read-out: AUC(0-24)",7020 ng·h/mL
same,AUC(0-inf),"[3]; human, po, 600 mg, Group 2, 600 mg single oral dose, individual subjects, read-out: AUC(0-∞)",8160 ng·h/mL
same,Cmax,"[3]; human, po, 600 mg, Group 2, 600 mg single oral dose, individual subjects, read-out: Cmax",2180 ng/mL
same,AUC(0-t),"[3]; human, po, 600 mg, Group 2, 600 mg single oral dose, read-out: Mean AUC(0-24)",6190 ng·h/mL
same,AUC(0-inf),"[3]; human, po, 600 mg, Group 2, 600 mg single oral dose, read-out: Mean AUC(0-∞)",7090 ng·h/mL
same,Cmax,"[3]; human, po, 600 mg, Group 2, 600 mg single oral dose, read-out: Mean Cmax",2020 ng/mL
same,AUC(0-t),"[3]; human, po, 1200 mg, Group 3, 1200 mg single oral dose, Mean (N 6), read-out: AUC(0-24)",11400 ng·h/mL
same,AUC(0-inf),"[3]; human, po, 1200 mg, Group 3, 1200 mg single oral dose, Mean (N 6), read-out: AUC(0-∞)",13200 ng·h/mL
same,Cmax,"[3]; human, po, 1200 mg, Group 3, 1200 mg single oral dose, Mean (N 6), read-out: Cmax",3070 ng/mL
same,Tmax,"[3]; human, po, 1200 mg, Group 3, 1200 mg single oral dose, Mean (N 6), read-out: Tmax",2.5 h
same,AUC(0-t),"[3]; human, po, 1200 mg, Group 3, 1200 mg single oral dose, individual subjects, read-out: AUC(0-24)",12700 ng·h/mL
same,AUC(0-inf),"[3]; human, po, 1200 mg, Group 3, 1200 mg single oral dose, individual subjects, read-out: AUC(0-∞)",15800 ng·h/mL
same,Tmax,"[3]; human, po, 1200 mg, Group 3, 1200 mg single oral dose, individual subjects, read-out: Tmax",2.5 h
same,AUC(0-t),"[3]; human, po, 1200 mg, Group 3, 1200 mg single oral dose, read-out: Mean AUC(0-24)",11400 ng·h/mL
same,AUC(0-inf),"[3]; human, po, 1200 mg, Group 3, 1200 mg single oral dose, read-out: Mean AUC(0-∞)",13200 ng·h/mL
same,Cmax,"[3]; human, po, 1200 mg, Group 3, 1200 mg single oral dose, read-out: Mean Cmax",3070 ng/mL
same,IC50,AP activity [4],27 nM
same,Choroid-RPE tissue exposure in NZW versus DB rabbit,[5],approximately five-fold lower
same,Mean Vitreous Humor concentration,"[6]; NZW rabbit, 15 mg/kg single oral dose, Day 1, 240 h",BLQ^a
same,Mean retina concentration,"[6]; NZW rabbits, Day 1, 15 mg/kg single dose, 96 hr",BLQ
same,concentration at 0 h,"[6]; New Zealand White, aqueous humor, NZW rabbit, 15 mg/kg single oral dose, Day 1, 0 h",6.14 ng/mL
same,concentration at 1 h,"[6]; New Zealand White, iris-ciliary body, NZW rabbit, 15 mg/kg single oral dose, Day 1, 1 h",117 ng/g
same,MRT last,"[6]; New Zealand White, po, Vitreous Humor, NZW rabbit, 15 mg/kg single dose, Day 1",2.24 h
same,Cmax,"[6]; New Zealand White, po, retina, NZW rabbit, 15 mg/kg single dose, Day 1",200 ng/g
same,Tlast,"[6]; Vitreous Humor, NZW rabbit, 15 mg/kg single dose, Day 1",6 h
same,AUClast,"[6]; plasma, NZW rabbit, 15 mg/kg single dose, Day 1",1430 ng·h/mL
same,Bmax (binding capacity),[7],137 nmol/mg melanin
